# Measurements as given in paper PMC12474041 (Toxins, 2025).
# Like-named read-outs stand apart in the source and are kept apart here. Bridge positions count the residues as written; N and C are the ends.
# How the values were obtained:
# [1] = cited from earlier work
# patients with NDM = conditions: cited from earlier work
# [2] = test system: DIII S6 and DIV S6 of the sodium channel pore domain; conditions: cited from earlier work
# Nav1.5 [3] = conditions: cited from earlier work
# Nav1.4 [4] = target: T1, Nav1.4 (Homo sapiens, UniProt P35499); design: expressed in transfected cells; host or cells: HEK cells; conditions: cited from earlier work
# T1 sequence (P35499 whole entry): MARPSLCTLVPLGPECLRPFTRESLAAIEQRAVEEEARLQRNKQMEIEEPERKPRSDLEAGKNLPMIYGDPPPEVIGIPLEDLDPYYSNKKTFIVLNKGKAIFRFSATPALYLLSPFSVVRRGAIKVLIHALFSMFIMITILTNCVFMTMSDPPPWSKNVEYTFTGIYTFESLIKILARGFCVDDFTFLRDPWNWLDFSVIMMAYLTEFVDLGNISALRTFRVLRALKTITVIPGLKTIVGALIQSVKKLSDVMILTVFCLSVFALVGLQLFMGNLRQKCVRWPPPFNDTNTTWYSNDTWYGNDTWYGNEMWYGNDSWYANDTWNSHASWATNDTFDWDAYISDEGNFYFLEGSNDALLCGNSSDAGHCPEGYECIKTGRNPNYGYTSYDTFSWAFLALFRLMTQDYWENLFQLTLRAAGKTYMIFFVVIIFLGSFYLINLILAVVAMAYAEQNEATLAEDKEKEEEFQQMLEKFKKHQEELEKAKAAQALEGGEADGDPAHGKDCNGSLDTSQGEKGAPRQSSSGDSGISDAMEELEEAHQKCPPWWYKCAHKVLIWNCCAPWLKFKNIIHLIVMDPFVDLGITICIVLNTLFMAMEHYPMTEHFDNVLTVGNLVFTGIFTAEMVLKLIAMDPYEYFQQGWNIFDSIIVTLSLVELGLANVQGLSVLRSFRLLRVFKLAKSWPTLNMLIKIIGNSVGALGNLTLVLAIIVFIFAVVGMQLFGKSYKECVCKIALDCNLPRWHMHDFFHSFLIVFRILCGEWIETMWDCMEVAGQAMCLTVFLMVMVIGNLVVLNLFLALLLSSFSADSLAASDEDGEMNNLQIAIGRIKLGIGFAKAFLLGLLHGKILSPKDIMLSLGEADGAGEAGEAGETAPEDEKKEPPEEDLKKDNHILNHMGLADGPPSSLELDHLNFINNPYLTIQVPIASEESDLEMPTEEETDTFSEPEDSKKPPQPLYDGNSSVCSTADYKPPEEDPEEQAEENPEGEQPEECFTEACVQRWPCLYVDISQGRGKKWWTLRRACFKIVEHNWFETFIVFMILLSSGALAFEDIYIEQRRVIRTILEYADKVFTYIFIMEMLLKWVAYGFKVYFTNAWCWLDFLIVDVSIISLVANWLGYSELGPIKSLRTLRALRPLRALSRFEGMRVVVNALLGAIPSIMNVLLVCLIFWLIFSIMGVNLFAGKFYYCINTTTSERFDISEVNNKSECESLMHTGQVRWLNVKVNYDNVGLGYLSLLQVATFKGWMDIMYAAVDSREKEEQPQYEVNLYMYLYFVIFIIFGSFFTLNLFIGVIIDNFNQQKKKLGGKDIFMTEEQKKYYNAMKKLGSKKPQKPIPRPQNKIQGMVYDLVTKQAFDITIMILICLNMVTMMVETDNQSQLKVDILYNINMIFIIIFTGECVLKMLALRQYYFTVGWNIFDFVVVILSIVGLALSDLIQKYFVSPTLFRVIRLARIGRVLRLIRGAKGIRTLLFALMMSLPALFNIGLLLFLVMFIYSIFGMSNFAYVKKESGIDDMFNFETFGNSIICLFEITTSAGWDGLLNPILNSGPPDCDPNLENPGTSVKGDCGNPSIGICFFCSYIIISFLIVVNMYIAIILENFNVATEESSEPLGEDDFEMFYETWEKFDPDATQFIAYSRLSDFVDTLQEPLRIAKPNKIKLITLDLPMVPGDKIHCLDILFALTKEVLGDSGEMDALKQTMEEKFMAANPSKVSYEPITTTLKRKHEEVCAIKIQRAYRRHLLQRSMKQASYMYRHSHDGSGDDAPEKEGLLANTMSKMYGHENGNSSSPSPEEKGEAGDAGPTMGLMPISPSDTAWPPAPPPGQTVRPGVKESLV
# Nav1.7 = assay: Whole-cell patch clamp, Nav1.7 in transfected HEK cells; conditions: room temperature, currents evoked at 0 mV, held at −80 mV
# Procedure: (§1) Plasmids containing sodium channels or potassium channels were transfected into HEK cells (gifted from Rong’s lab at Hunan Normal University, Changsha, China [32]) using Lipofectamine 2000. After 24 h, whole-cell patch clamp recordings were made at room temperature. Using a drawn borosilicate glass electrode (resistance 3–5 MΩ) filled with intracellular solution, the current of the transfected cells was assessed using the MultiClamp 700B amplifier (Molecular Devices, Sunnyvale, America) and pCLAMP 10 software. We set the clamping voltage to −80 mV and the stimulation voltage to 0 mV.
# (§2) The extracellular solution used to record the sodium ion channels included the following components (in mM): 150 NaCl, 2 KCl, 1.5 CaCl2, 1 MgCl2, and 10 HEPES, and the pH was adjusted to 7.4 with NaOH. To record the potassium ion channel, the extracellular solution contained (in mM) 140 NaCl, 2 KCl, 1.5 CaCl2, 1 MgCl2, and 10 HEPES, and the pH was adjusted to 7.4 using NaOH. The intracellular solution that recorded the sodium ion channel currents contained 10 mM NaCl, 10 mM EGTA, 135 mM CsCl, and 10 mM HEPES, and the pH was adjusted to 7.3 with CsOH. To record the potassium ion channel currents, the intracellular solution contained 10 mM EGTA, 140 mM KCl, 2.5 mM MgCl2, and 10 mM HEPES, and the pH was adjusted to 7.4 using NaOH.
# Kv4.2 = assay: Whole-cell patch clamp, Kv4.2 in transfected HEK cells; conditions: 50 μM, room temperature, currents evoked at 0 mV, held at −80 mV
# Procedure: as §1, §2
# Kv1.3 = assay: Whole-cell patch clamp, Kv1.3 in transfected HEK cells; conditions: 50 μM, room temperature, currents evoked at 0 mV, held at −80 mV
# Procedure: as §1, §2
# Kv1.4 = assay: Whole-cell patch clamp, Kv1.4 in transfected HEK cells; conditions: 50 μM, room temperature, currents evoked at 0 mV, held at −80 mV
# Procedure: as §1, §2
# Nav1.4 [5] = target: T1, Nav1.4; assay: Whole-cell patch clamp, Nav1.4 in transfected HEK cells
# Procedure: as §1, §2
# Nav1.5 [6] = assay: Whole-cell patch clamp, Nav1.5 in transfected HEK cells; conditions: room temperature, currents evoked at 0 mV, held at −80 mV
# Procedure: as §1, §2
# [7] = test system: G-protein-coupled GABAB receptors; conditions: cited from earlier work
# [8] = test system: N-type (Cav2.2) calcium channels; conditions: cited from earlier work
compound,measurement,setting,value
"Cc1cccc(C)c1NC(=O)C(C)N (stereo not drawn) [Tocainide, tocainide]",side effects,[1]; can be fatal,"anemia, agranulocytosis, pulmonary fibrosis, interstitial pneumonia, and pulmonary edema"
O=C(NCC1CCCCN1)c1cc(OCC(F)(F)F)ccc1OCC(F)(F)F (stereo not drawn) [flecainide],efficacy in patients with NDM,patients with NDM,effective in some patients with NDM
Cc1cccc(C)c1OCC(C)N (stereo not drawn) [mexiletine],effect on muscle stiffness,patients with NDM; patients with NDM,improving muscle stiffness in patients with NDM
same,side effects,[1]; sensitivity of different patients varies greatly,indigestion
same,binding site on sodium channel,[2],binds to DIII S6 and DIV S6 of the sodium channel pore domain
ATX-II,EC50,Nav1.5 [3],49 nM
same,EC50,Nav1.4 [4],109 nM
"GEFINGDCELPKVVGPCRAGFRRYYYNSSSKRCEKFIYGGCRGNANNFHTLEECEKVCGVRS (disulfide 8-58, 17-41, 33-54 (inferred)) [Avd3i, U-actitoxin-Avd3i]",effect on Nav1.7,Nav1.7,did not inhibit
same,effect on Kv4.2,Kv4.2,no effect
same,effect on Kv1.3,Kv1.3,no effect
same,effect on Kv1.4,Kv1.4,no effect
same,IC50,Nav1.4 [5],25400 nM
same,inhibition of Nav1.4 channel at 50.0 μM,"Nav1.4 [5]; 50.0 μM perfusion, transfected HEK cells, room temperature, holding −80 mV, stimulation 0 mV",suppressed
same,concentration dependence of Nav1.4 inhibition,"Nav1.4 [5]; transfected HEK cells, whole-cell patch clamp",concentration-dependent manner
same,effect on Nav1.5,Nav1.5 [6],did not inhibit
Vc1.1,binding to GABAB receptors,[7],binding to G-protein-coupled GABAB receptors
same,direct binding to Cav2.2,[8],do not directly bind
same,inhibition of Cav2.2 channel function,[8],indirectly inhibit channel function
